One test has as its system B. fragilis AMP S. Description: MIC by agar-dilution (Diagnostic Sensitivity Test), inoculum 10^4 CFU/spot. The class given is cell-based. The settings on record: Bacteroides fragilis, read-out: minimum inhibitory concentration (MIC). The text has this: (§1) The pharmaceutically acceptable carbapenem compounds of the present invention are useful antibacterial agents having a broad spectrum of activity in vitro against standard laboratory microorganisms, both Gram-negative and Gram-positive, which are used to screen for activity against pathogenic bacteria. The antibacterial spectrum and potency of a particular compound may be determined in a standard test system. In particular the carbapenems of the present invention show good stability to beta-lactamases and have a particularly good elimination half life in mammals. In general compounds show significant improvement over imipenem.
(§2) The following results were obtained for representative compounds on a standard in vitro test system using Diagnostic Sensitivity Test. The antibacterial activity is described in terms of the minimum inhibitory concentration (MIC) determined by the agar-dilution technique with an inoculum size of 10^4 CFU/spot.

Another test deals with E. coli DCO. The description is as above. In kind it is cell-based. The conditions noted are these: Escherichia coli, read-out: minimum inhibitory concentration (MIC).
Description: as §1, §2

Test [1] has as its system Enterobacter cloacae P99-. The test is described as above. In kind it is cell-based. The conditions noted are these: P99, read-out: minimum inhibitory concentration (MIC).
Description: as §1, §2

In the next test the test system is P. morganii I + 001. Described as above. The settings on record: Morganella morganii, read-out: minimum inhibitory concentration (MIC). In kind it is cell-based.
Description: as §1, §2

In a further test the test system is S. aureus Oxford. The description is as above. In kind it is cell-based. The conditions noted are these: Staphylococcus aureus, read-out: minimum inhibitory concentration (MIC).
Description: as §1, §2

Test [2] deals with Gram positive and negative, aerobic and anaerobic bacteria. The settings on record: imipenem, background; cited from earlier work.

Converted amounts (≈) assume the structure as drawn.

Take `C[C@@H](O)[C@H]1C(=O)N2C(C(=O)O)=C(S[C@@H]3CN[C@H](C(=O)Nc4cccc(S(=O)(=O)O)c4)C3)[C@H](C)[C@H]12` [EXAMPLE 1, (1R,5S,6S,8R,2'S,4'S)-2-(2-(3-Sulfophenylcarbamoyl)pyrrolidin-4-ylthio)-6-(1-hydroxyethyl)-1-methylcarbapenem-3-carboxylic acid]: the MIC was found to be 0.25 µg/mL (≈ 0.489 µM) with B. fragilis AMP S; 0.015 µg/mL (≈ 0.0293 µM) with E. coli DCO; 8 ng/mL (≈ 0.0156 µM) in test [1]; 0.015 µg/mL (≈ 0.0293 µM) with P. morganii I + 001; 0.125 µg/mL (≈ 0.244 µM) with S. aureus Oxford.
Turning to `C[C@@H](O)[C@H]1C(=O)N2C(C(=O)O)=C(SCCN=CN)C[C@H]12` [imipenem, N-formimidoyl thienamycin], the “spectrum of antibacterial activity” value in test [2] is listed as “broad spectrum of antibacterial activity”.

Values taken from patent publication US5571805A, “Antibiotic compounds” (Zeneca Limited, priority 1992, dated 1996).
